In patent US8637702B2, “Derivatives of N-hydroxybenzamide for treating HIV infections” (Italfarmaco S.p.A., priority 2009, dated 2014):

What was measured:
[1] = molecular target: HDAC9 (Homo sapiens, UniProt Q9UKV0); experiment: Inhibition of histone deacetylase isoforms, HDAC9
Description: (§1) Recombinant human enzymes were acquired from BPS Biosciences (CA, USA). Isoforms of Class I HDAC1, 2, 3; HDAC6, 10 of Class IIb and Class IV HDAC11 were tested using the Fluor-de-Lys fluorogenic synthetic substrate (Enzo Life Sciences, Plymouth Meeting, Pa.). […] Each inhibitor was dissolved in DMSO and then further diluted in an assay buffer. […] The assays were performed by pre-incubating each enzyme with the inhibitors for 15 minutes at 37° C. The reaction was started by adding the substrate at 37° C. and allowed to proceed for 60 minutes. The fluorescent signal was generated by adding 50 μL of a twice concentrated developer solution 2 (Enzo) containing trichostatin A 4 μM.

[2] = molecular target: HDAC4 (Homo sapiens, UniProt P56524); experiment: Inhibition of histone deacetylase isoforms, HDAC4
Description: as §1

[3] = Monzani et al., EUROTOX 2007; cited from earlier work
[4] = tested on: HIV-1 expression in ACH-2 cells; experiment: Induction of the HIV-1 expression in the ACH-2 cell line (p24); format: cell-based; settings: 24 hours
Description: ACH2 cells were obtained through AIDS Research and Reference Reagent Program, Division of AIDS, National Institute of Allergy and Infectious Diseases, National Institutes of Health, Bethesda, Md. The cells were cultured in flasks, washed in RPMI and resuspended in RPMI/10% FCS at a concentration of 2×10^6 cells/mL. […] After 24 hours of incubation at 37° C./5% CO2, 50 μL of supernatant were removed for the cytotoxicity assay of the lactate dehydrogenase (LDH) and Triton-X-100 (0.5% vol/vol final concentration) were added to each culture. The p24 assays of the lysates were performed immediately.
p24 was measured using specific antibodies immobilized on magnetic beads as previously described [Nold M. F. et al. J. Immunol. […] The levels of p24 for each experiment without HDAC inhibitors were fixed at 1.0 and the increase values by the number of times for each experiment and each analogous were calculated.

[5] = molecular target: T1, HDAC10 (Homo sapiens, UniProt Q969S8); experiment: Inhibition of histone deacetylase isoforms, HDAC10
T1 sequence (Q969S8 1-669): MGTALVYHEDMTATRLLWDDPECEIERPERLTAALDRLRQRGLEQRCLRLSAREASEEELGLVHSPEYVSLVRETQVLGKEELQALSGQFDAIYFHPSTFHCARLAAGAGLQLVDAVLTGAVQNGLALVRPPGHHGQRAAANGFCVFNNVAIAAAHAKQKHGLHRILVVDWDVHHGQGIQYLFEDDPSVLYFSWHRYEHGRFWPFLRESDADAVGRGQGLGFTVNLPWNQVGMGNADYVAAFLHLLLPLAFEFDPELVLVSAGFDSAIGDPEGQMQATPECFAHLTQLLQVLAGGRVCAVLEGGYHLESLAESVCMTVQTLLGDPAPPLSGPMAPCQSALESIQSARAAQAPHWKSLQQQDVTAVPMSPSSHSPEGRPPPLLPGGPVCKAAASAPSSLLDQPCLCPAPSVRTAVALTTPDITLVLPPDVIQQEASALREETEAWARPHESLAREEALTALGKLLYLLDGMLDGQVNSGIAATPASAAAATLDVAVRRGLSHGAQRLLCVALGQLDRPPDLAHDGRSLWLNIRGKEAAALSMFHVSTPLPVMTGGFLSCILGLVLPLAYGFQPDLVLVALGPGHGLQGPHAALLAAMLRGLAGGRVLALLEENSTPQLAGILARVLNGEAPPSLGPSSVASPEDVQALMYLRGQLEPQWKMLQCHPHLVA
Description: as §1

[6] = tested on: micronucleated erythrocytes; settings: administered to mice, Zolinza package leaflet; cited from earlier work
[7] = tested on: bacteria; settings: in vitro, Zolinza package leaflet; cited from earlier work
[8] = 400 mg/day, Zolinza package leaflet; cited from earlier work
[9] = tested on: latent HIV reservoir; settings: combined with HAART, clinical studies; cited from earlier work

Sequence of HDAC4 (P56524 whole entry, canonical isoform): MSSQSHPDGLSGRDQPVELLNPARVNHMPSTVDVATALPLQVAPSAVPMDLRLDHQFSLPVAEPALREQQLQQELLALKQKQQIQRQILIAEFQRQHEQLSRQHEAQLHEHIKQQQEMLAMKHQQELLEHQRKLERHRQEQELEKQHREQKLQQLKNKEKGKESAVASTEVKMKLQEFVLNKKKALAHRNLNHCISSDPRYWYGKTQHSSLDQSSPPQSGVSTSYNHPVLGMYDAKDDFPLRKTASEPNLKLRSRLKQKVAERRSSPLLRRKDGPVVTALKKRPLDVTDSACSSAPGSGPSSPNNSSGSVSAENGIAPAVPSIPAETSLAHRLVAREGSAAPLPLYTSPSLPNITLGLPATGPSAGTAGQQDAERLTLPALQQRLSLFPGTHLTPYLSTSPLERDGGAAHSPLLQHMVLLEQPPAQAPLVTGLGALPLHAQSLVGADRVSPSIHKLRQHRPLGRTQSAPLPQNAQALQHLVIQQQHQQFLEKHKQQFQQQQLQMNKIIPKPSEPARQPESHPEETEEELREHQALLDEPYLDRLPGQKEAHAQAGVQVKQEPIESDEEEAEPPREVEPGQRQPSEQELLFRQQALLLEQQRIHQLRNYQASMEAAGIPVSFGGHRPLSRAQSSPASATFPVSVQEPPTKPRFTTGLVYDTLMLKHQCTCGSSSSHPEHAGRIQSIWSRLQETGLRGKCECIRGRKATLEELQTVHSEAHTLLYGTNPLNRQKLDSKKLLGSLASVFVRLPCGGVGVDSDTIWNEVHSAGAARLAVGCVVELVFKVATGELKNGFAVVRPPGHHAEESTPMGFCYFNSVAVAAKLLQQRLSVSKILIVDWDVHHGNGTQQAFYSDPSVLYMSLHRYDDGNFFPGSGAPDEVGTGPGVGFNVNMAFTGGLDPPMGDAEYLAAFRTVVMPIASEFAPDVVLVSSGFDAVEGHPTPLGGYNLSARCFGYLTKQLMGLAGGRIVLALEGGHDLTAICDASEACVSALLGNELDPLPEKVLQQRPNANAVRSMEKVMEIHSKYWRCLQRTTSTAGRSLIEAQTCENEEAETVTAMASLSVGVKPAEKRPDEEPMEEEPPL
Sequence of HDAC9 (Q9UKV0 whole entry, canonical isoform): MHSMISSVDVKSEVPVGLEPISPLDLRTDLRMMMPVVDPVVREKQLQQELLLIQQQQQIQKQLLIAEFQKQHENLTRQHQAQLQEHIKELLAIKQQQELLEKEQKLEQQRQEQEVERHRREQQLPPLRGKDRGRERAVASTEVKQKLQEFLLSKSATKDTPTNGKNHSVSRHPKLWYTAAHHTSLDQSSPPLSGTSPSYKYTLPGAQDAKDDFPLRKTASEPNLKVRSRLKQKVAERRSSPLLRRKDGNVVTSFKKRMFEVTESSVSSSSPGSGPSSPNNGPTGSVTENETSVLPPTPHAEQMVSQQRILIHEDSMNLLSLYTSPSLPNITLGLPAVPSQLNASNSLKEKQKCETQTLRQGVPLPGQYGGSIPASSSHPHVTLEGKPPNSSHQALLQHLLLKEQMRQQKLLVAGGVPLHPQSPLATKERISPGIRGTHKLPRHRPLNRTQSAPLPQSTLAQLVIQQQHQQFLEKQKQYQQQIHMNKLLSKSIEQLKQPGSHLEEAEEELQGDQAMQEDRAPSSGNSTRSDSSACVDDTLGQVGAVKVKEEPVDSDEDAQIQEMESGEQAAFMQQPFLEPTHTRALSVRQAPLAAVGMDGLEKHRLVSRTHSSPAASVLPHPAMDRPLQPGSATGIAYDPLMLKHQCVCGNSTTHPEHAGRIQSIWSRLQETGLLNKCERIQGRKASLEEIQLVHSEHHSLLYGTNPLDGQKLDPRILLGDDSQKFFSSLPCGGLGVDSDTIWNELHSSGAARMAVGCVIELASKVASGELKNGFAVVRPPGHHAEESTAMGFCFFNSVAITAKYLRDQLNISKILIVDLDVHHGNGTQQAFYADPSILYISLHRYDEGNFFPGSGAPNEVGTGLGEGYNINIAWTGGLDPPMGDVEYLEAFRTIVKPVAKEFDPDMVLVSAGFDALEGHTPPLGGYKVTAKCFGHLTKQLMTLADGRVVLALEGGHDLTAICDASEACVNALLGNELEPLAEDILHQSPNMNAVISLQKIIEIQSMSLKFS

Compound: CCN(CC)Cc1ccc2cc(COC(=O)Nc3ccc(C(=O)NO)cc3)ccc2c1.Cl [ITF2357, Diethyl-[6-(4-hydroxycarbamoyl-phenylcarbamoyloxymethyl)-naphtalen-2-yl-methyl]ammonium chloride]
- IC50 [1]: 518 nM
- IC50 [2]: 724 nM
- mutagenicity [3]: non-mutagenic
- increase of the number of times in the level of p24 with respect to control ([4]; 31 nM): 1 times
- increase of the number of times in the level of p24 with respect to control ([4]; 63 nM): 1 times
- increase of the number of times in the level of p24 with respect to control ([4]; 125 nM): 2 times
- increase of the number of times in the level of p24 with respect to control ([4]; 250 nM): 15 times
- IC50 [5]: 351 nM

Compound: O=C(CCCCCCC(=O)Nc1ccccc1)NO [SAHA]
- incidence of micronucleated erythrocytes [6]: increases the incidence of micronucleated erythrocytes
- mutagenicity in bacterial back-mutation assays (Ames test) [7]: mutagenic
- adverse effects in patients [8]: numerous, serious adverse effects such as diarrhoea, tiredness, nausea, thrombocytopenia, anorexia and dysgeusia

Compound: CCCC(CCC)C(=O)O [VPA, Valproic acid]
- diminution of the latent reservoir [9]: without leading to any considerable diminution of the latent reservoir
